Experimental data as given in publication PMC6066518, “Homology Modeling Informs Ligand Discovery for the Glutamine Transporter ASCT2” (Frontiers in Chemistry, 2018).

Target: T1, ASCT2 (Rattus norvegicus, UniProt D3ZJ25)
T1 construct: gene Slc1a5
T1 sequence (D3ZJ25 1-555): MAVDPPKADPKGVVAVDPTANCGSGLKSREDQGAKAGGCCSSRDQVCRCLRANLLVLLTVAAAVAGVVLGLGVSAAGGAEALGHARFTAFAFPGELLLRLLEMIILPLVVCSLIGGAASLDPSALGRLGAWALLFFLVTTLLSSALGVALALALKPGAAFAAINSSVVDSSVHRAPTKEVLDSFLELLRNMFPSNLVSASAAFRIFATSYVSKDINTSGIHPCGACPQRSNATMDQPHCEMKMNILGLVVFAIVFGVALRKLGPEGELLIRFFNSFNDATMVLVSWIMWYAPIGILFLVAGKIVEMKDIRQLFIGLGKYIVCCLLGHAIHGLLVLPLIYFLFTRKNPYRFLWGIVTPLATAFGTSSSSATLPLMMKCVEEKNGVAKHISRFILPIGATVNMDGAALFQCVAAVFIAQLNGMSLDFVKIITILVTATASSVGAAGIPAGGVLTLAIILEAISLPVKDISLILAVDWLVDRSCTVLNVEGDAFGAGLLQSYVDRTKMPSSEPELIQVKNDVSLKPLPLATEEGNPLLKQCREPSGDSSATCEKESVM
Assay: whole-cell current recording, inhibition of anion leak current in HEK293 cells expressing rat ASCT2
Format: cell-based

Compound: Cc1ccccc1C1(CNC(=O)NC(C(N)=O)c2ccccc2)CC1 (stereo not shown) [compound 10]
- IC50: 67 ± 17 µM
